Earlier results, collected in US10882883B2, “Derivatives of amphotericin B” (Sfunga Therapeutics, Inc., priority 2015, dated 2021).

What was measured:
[1] = Wilcock et al., J Am Chem Soc 135: 8488-91 (2013)
yeast = details: in vitro studies; WO 2014/165676
[2] = Wilcock et al., J Am Chem Soc 135: 8488-91 (2013); remark: listed apart in the source

CC1C=CC=CC=CC=CC=CC=CC=CC(OC2CC(N)C(O)C(C)O2)CC2OC(O)(CC(O)CC(O)C(O)CCC(O)CC(O)CC(=O)OC(C)C(C)C1O)CC(O)C2C(=O)O (stereo not drawn) [C2′deOAmB]
ergosterol-binding ability [1]: retains ergosterol-binding ability
toxicity to yeast (yeast): toxic to yeast
binding to cholesterol [2]: no binding to cholesterol
